Assay results: patent US6376666B1 (Nauchno-Issledovatelsky Institut Farmakologii Rossiiskoi …, priority 1994, dated 2002)
Marks after values point to notes of the source that are not given here.

Key:
C57B1/6 mice = assay: open-field test, C57B1/6 mice (active type of emotional-stress reaction); type: in vivo; set-up: key to Total activity: sum of all locomotor activity counts (crossings + rearings) in 3 min; conditions: for effect on locomotor activity of C57B1/6 mice in open-field test, in words: i.p., doses that activate Balb/c mice; for Central activity (crossings) / Number of defecations / Peripheral activity (crossings) / Total activity / Vertical activity (rearings): M ± mx
Procedure, shortened: (§1)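 Male mice, 20-22 g, dosed i.p. in water 30 min before a 3-min open-field test after 1 min in darkness; peripheral, central, rearing and total activity plus defecations recorded; Student t-test. Anxiolysis read as Balb/c activation, sedation as C57B1/6 inhibition.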

[1] = test system: ischemized myocardium of cats; assay: ST-segment elevation during 5 min occlusions of coronary artery (acute coronary deficiency); type: in vivo; conditions: for change in mean elevation of ST-segment vs control occlusion: cats, 1.0 mg/kg i.v.
Method: These experiments were conducted in cats weighing 2,5-4,0 kg under anasthesia by i.v. injection of nembutal (40 mg/kg) in open chest conditions. Epicardium electrogram in 3-4 leads was registered in “Mingograph-81”. The value of mean elevation of ST-segment during 5 min occlusions of anterior left descending coronary artery with 15 min reperfusions between them was the main index of intensity of reversible ischemized damage of myocardium.
The statistical calculation was carried out with non-parametric Wilcocson method for associated variants.

Balb/c mice = assay: open-field test, Balb/c mice (passive type of emotional-stress reaction); type: in vivo; set-up: key to Total activity: sum of all locomotor activity counts (crossings + rearings) in 3 min; conditions: for Number of defecations / Peripheral activity (crossings) / Total activity / Central activity (crossings) / Vertical activity (rearings): M ± mx; for effect on the behavior (locomotor activity) of Balb/c mice in open-field test, in words: i.p., screening
Procedure, shortened: as §1

aconitine arrhythmia = assay: animal or person; type: in vivo, rats; conditions: for ED50: Rattus norvegicus, iv, read-out: Aconitine arrhythmia ED50
Method: Aconitine arrhythmia. The aconitine arrhythmia was induced in concious rats weighing 180-200 g by the injection in tail vein of the aconitine sulfate solution at dose range of […]. […] The tested compounds were administered i.v. 3 min prior aconitine injection. The ED50 value was calculated according to Litchfield's method.

CCOc1ccc2nc(SCCN(CC)CC)[nH]c2c1 [Compound IX, 2-[2-(Diethylamino)ethylthio]-5-ethoxybenz-imidazole]
effect on locomotor activity of C57B1/6 mice in open-field test, in words (C57B1/6 mice): without any changes in locomotor activity
change in mean elevation of ST-segment vs control occlusion ([1]; occlusion 20 min after injection, 15 sec of reperfusion): −0.8* mv
change in mean elevation of ST-segment vs control occlusion ([1]; occlusion 20 min after injection, 30 sec of occlusion): −0.7 mv
change in mean elevation of ST-segment vs control occlusion ([1]; occlusion 20 min after injection, 2 min of occlusion): −1.4* mv
change in mean elevation of ST-segment vs control occlusion ([1]; occlusion 20 min after injection, 3 min of occlusion): −1.4* mv
change in mean elevation of ST-segment vs control occlusion ([1]; occlusion 20 min after injection, 5 min of occlusion): −1.2 mv
change in mean elevation of ST-segment vs control occlusion ([1]; occlusion 40 min after injection, 15 sec of reperfusion): −1.0* mv
change in mean elevation of ST-segment vs control occlusion ([1]; occlusion 40 min after injection, 30 sec of occlusion): −0.5 mv
change in mean elevation of ST-segment vs control occlusion ([1]; occlusion 40 min after injection, 1 min of occlusion): −0.5* mv
change in mean elevation of ST-segment vs control occlusion ([1]; occlusion 40 min after injection, 2 min of occlusion): −1.0* mv
change in mean elevation of ST-segment vs control occlusion ([1]; occlusion 40 min after injection, 3 min of occlusion): −1.2 mv
change in mean elevation of ST-segment vs control occlusion ([1]; occlusion 40 min after injection, 5 min of occlusion): −1.0 mv
change in mean elevation of ST-segment vs control occlusion ([1]; occlusion immediately after injection, 15 sec of reperfusion): −1.2* mv
change in mean elevation of ST-segment vs control occlusion ([1]; occlusion immediately after injection, 30 sec of occlusion): −1.8** mv
change in mean elevation of ST-segment vs control occlusion ([1]; occlusion immediately after injection, 1 min of occlusion): −1.9** mv
change in mean elevation of ST-segment vs control occlusion ([1]; occlusion immediately after injection, 2 min of occlusion): −2.4** mv
change in mean elevation of ST-segment vs control occlusion ([1]; occlusion immediately after injection, 3 min of occlusion): −1.9** mv
change in mean elevation of ST-segment vs control occlusion ([1]; occlusion immediately after injection, 5 min of occlusion): −2.2** mv
duration of anti-ischemic effect after injection ([1]; cats, 1,0 mg/kg i.v.): 40 min
effect on mean elevation of ST-segment during 5 min occlusion, in words ([1]; cats, 1,0 mg/kg i.v.): decreased the mean elevation of ST-segment
Number of defecations (Balb/c mice; 0.1 mg/kg i.p.): 0.1 ± 0.1
Peripheral activity (crossings) (Balb/c mice; 0.1 mg/kg i.p., 0.1 mg/kg): 15.1 ± 9.0
Total activity (Balb/c mice; 0.1 mg/kg i.p., 0.1 mg/kg): 15.1 ± 9.0
Peripheral activity (crossings) (Balb/c mice; 1.0 mg/kg i.p., 1 mg/kg): 39.8 ± 7.3
Total activity (Balb/c mice; 1.0 mg/kg i.p., 1 mg/kg): 39.8 ± 7.3
Peripheral activity (crossings) (Balb/c mice; 5.0 mg/kg i.p.): 44.1 ± 10.2
Total activity (Balb/c mice; 5.0 mg/kg i.p.): 44.1 ± 10.2
Peripheral activity (crossings) (Balb/c mice; 10.0 mg/kg i.p., 10 mg/kg): 36.8 ± 5.0
Total activity (Balb/c mice; 10.0 mg/kg i.p., 10 mg/kg): 36.8 ± 5.0
Peripheral activity (crossings) (Balb/c mice; 20.0 mg/kg i.p.): 17.8 ± 5.5
Total activity (Balb/c mice; 20.0 mg/kg i.p.): 17.8 ± 5.5
effect on the behavior (locomotor activity) of Balb/c mice in open-field test, in words (Balb/c mice): able to activate the behavior of Balb/c mice
LD50/ED50 (antiarrhythmic index) (aconitine arrhythmia; LD50 i.v. / ED50 aconitine arrhythmia): 26,2
ED50 (aconitine arrhythmia): 1.2 mg/kg
activity relative to lidocaine, aconitine arrhythmia (aconitine arrhythmia; rats, higher than lidocaine): 6,5 folds
activity relative to quinidine, aconitine arrhythmia (aconitine arrhythmia; rats, higher than quinidine): 4,4 folds

CN(C)CCSc1nc2ccccc2n1CCc1ccccc1 [Compound XX, 1-(β-Phenylethyl)-2-[2-(dimethylamino)ethylthio]-benzimidazole]
ED50 (aconitine arrhythmia): < 0.5 mg/kg

CCOc1ccc2nc(SCCN3CCOCC3)[nH]c2c1 [XII, 2-[2-(Morpholino)ethylthio]-5-ethoxybenzimidazole]
Central activity (crossings) (C57B1/6 mice; 0.1 mg/kg i.p.): 18.3 ± 1.9
Number of defecations (C57B1/6 mice; 0.1 mg/kg i.p.): 1.3 ± 0.3
Peripheral activity (crossings) (C57B1/6 mice; 0.1 mg/kg i.p.): 92.9 ± 5.4
Total activity (C57B1/6 mice; 0.1 mg/kg i.p.): 123.6 ± 8.4
Vertical activity (rearings) (C57B1/6 mice; 0.1 mg/kg i.p.): 12.5 ± 1.1
Central activity (crossings) (C57B1/6 mice; 1.0 mg/kg i.p.): 20.4 ± 2.3
Number of defecations (C57B1/6 mice; 1.0 mg/kg i.p.): 0.5 ± 0.5
Peripheral activity (crossings) (C57B1/6 mice; 1.0 mg/kg i.p.): 86.6 ± 4.3
Total activity (C57B1/6 mice; 1.0 mg/kg i.p.): 123.5 ± 8.4
Vertical activity (rearings) (C57B1/6 mice; 1.0 mg/kg i.p.): 16.5 ± 1.8
Central activity (crossings) (C57B1/6 mice; 10.0 mg/kg i.p.): 36.0 ± 4.9
Number of defecations (C57B1/6 mice; 10.0 mg/kg i.p.): 0.6 ± 0.6
Peripheral activity (crossings) (C57B1/6 mice; 10.0 mg/kg i.p.): 86.6 ± 10.9
Total activity (C57B1/6 mice; 10.0 mg/kg i.p.): 140.2 ± 19.0
Vertical activity (rearings) (C57B1/6 mice; 10.0 mg/kg i.p.): 17.6 ± 3.2
Central activity (crossings) (C57B1/6 mice; 20.0 mg/kg i.p.): 23.4 ± 4.9
Number of defecations (C57B1/6 mice; 20.0 mg/kg i.p.): 1.8 ± 0.6
Peripheral activity (crossings) (C57B1/6 mice; 20.0 mg/kg i.p.): 86.4 ± 4.0
Total activity (C57B1/6 mice; 20.0 mg/kg i.p.): 127.2 ± 11.6
Vertical activity (rearings) (C57B1/6 mice; 20.0 mg/kg i.p.): 17.4 ± 2.7
Central activity (crossings) (C57B1/6 mice; 30.0 mg/kg i.p.): 26.3 ± 10.2
Number of defecations (C57B1/6 mice; 30.0 mg/kg i.p.): 0.1 ± 0.1
Peripheral activity (crossings) (C57B1/6 mice; 30.0 mg/kg i.p.): 53.0 ± 5.7
Total activity (C57B1/6 mice; 30.0 mg/kg i.p.): 87.9 ± 17.5
Vertical activity (rearings) (C57B1/6 mice; 30.0 mg/kg i.p.): 8.3 ± 4.6
Central activity (crossings) (C57B1/6 mice; 50.0 mg/kg i.p.): 13.9 ± 5.3
Number of defecations (C57B1/6 mice; 50.0 mg/kg i.p.): 0.5 ± 0.3
Peripheral activity (crossings) (C57B1/6 mice; 50.0 mg/kg i.p.): 67.1 ± 11.9
Total activity (C57B1/6 mice; 50.0 mg/kg i.p.): 90.1 ± 19.8
Vertical activity (rearings) (C57B1/6 mice; 50.0 mg/kg i.p.): 9.1 ± 2.6
effect on locomotor activity of C57B1/6 mice in open-field test, in words (C57B1/6 mice): without any changes in locomotor activity
Central activity (crossings) (Balb/c mice; 0.001 mg/kg i.p.): 1.6 ± 1.6
Peripheral activity (crossings) (Balb/c mice; 0.001 mg/kg i.p.): 28.9 ± 8.8
Total activity (Balb/c mice; 0.001 mg/kg i.p.): 30.3 ± 9.4
Central activity (crossings) (Balb/c mice; 0.01 mg/kg i.p.): 2.6 ± 1.4
Number of defecations (Balb/c mice; 0.01 mg/kg i.p.): 3.1 ± 0.6
Peripheral activity (crossings) (Balb/c mice; 0.01 mg/kg i.p.): 79.8 ± 9.3
Total activity (Balb/c mice; 0.01 mg/kg i.p.): 83.2 ± 11.3
Vertical activity (rearings) (Balb/c mice; 0.01 mg/kg i.p.): 0.9 ± 0.6
Number of defecations (Balb/c mice; 0.05 mg/kg i.p.): 2.0 ± 0.8
Peripheral activity (crossings) (Balb/c mice; 0.05 mg/kg i.p.): 37.1 ± 6.7
Total activity (Balb/c mice; 0.05 mg/kg i.p.): 37.1 ± 6.7
Number of defecations (Balb/c mice; 0.1 mg/kg i.p.): 2.4 ± 0.7
Peripheral activity (crossings) (Balb/c mice; 0.1 mg/kg i.p.): 70.6 ± 10.6
Total activity (Balb/c mice; 0.1 mg/kg i.p.): 73.7 ± 12.7
Central activity (crossings) (Balb/c mice; 0.5 mg/kg i.p.): 2.9 ± 1.5
Number of defecations (Balb/c mice; 0.5 mg/kg i.p.): 1.6 ± 0.8
Peripheral activity (crossings) (Balb/c mice; 0.5 mg/kg i.p.): 77.6 ± 14.2
Total activity (Balb/c mice; 0.5 mg/kg i.p.): 80.5 ± 15.7
Central activity (crossings) (Balb/c mice; 1.0 mg/kg i.p.): 0.5 ± 0.3
Number of defecations (Balb/c mice; 1.0 mg/kg i.p.): 2.8 ± 0.9
Peripheral activity (crossings) (Balb/c mice; 1.0 mg/kg i.p.): 66.3 ± 11.1
Total activity (Balb/c mice; 1.0 mg/kg i.p.): 66.8 ± 11.4
Central activity (crossings) (Balb/c mice; 5.0 mg/kg i.p.): 2.3 ± 1.5
Number of defecations (Balb/c mice; 5.0 mg/kg i.p.): 0.8 ± 0.5
Peripheral activity (crossings) (Balb/c mice; 5.0 mg/kg i.p.): 43.0 ± 4.4
Total activity (Balb/c mice; 5.0 mg/kg i.p.): 45.3 ± 5.9
Central activity (crossings) (Balb/c mice; 10.0 mg/kg i.p.): 0.9 ± 0.3
Number of defecations (Balb/c mice; 10.0 mg/kg i.p.): 2.0 ± 0.7
Peripheral activity (crossings) (Balb/c mice; 10.0 mg/kg i.p.): 54.8 ± 8.3
Total activity (Balb/c mice; 10.0 mg/kg i.p.): 55.7 ± 8.6
Central activity (crossings) (Balb/c mice; 30.0 mg/kg i.p.): 1.1 ± 0.7
Number of defecations (Balb/c mice; 30.0 mg/kg i.p.): 4.5 ± 1.4
Peripheral activity (crossings) (Balb/c mice; 30.0 mg/kg i.p.): 50.5 ± 7.9
Total activity (Balb/c mice; 30.0 mg/kg i.p.): 51.7 ± 8.7
Vertical activity (rearings) (Balb/c mice; 30.0 mg/kg i.p.): 0.1 ± 0.1
Number of defecations (Balb/c mice; 50.0 mg/kg i.p.): 1.6 ± 0.5
Peripheral activity (crossings) (Balb/c mice; 50.0 mg/kg i.p.): 11.0 ± 1.6
Total activity (Balb/c mice; 50.0 mg/kg i.p.): 11.0 ± 1.6
effect on the behavior (locomotor activity) of Balb/c mice in open-field test, in words (Balb/c mice): able to activate the behavior of Balb/c mice
